Results from patent US9408831B2, “Methods for treating respiratory viral infection” (Celgene Corporation, priority 2010, dated 2016).
Entries after “also recorded” stand apart in the source; their conditions may differ.

Key:
Assay type in all cases: in vivo, mice
[1] = system: influenza X31 strain (H3N2)
[2] = system: influenza X31 strain (H3N2); experiment: Total viable cell counts in the airway (BAL) and lung tissue, trypan blue exclusion; conditions: 100 μg/mouse i.p. daily
[3] = system: influenza X31 strain (H3N2); experiment: Macrophages and neutrophils in airspaces and lung by flow cytometry
[4] = system: influenza X31 strain (H3N2); experiment: T cell recruitment (CD4, CD8 surface markers) by flow cytometry
[5] = system: influenza X31 strain (H3N2); conditions: day 7
[6] = system: influenza X31 strain (H3N2); conditions: lung homogenates, FIG. 9
[7] = day 7, between the animal groups
[8] = early (day 3), 100 μg/mouse i.p. daily, FIG. 5

Structure (SMILES): COc1ccc(C(CC(N)=O)N2Cc3ccccc3C2=O)cc1OC (stereo not shown) [Compound 1]
- weight loss (percent original weight) ([1]; 100 μg/mouse i.p. daily days 0-6, vs vehicle control and untreated, FIG. 1): significantly reduced weight loss
- visible health appearance ([1]; controls hunched and cachexic on day 5): appeared visibly in better health
- cellular infiltrate into the airway (BAL), total viable cells ([2]; […], FIG. 2): significantly reduced the cellular infiltrate
- cell counts in the airway (BAL fluid) relative to infected mice not treated ([2]; day 3): less than half
- reduction of cellular infiltrate in the lung parenchyma ([2]; day 3 or day 7, FIG. 2): not observed
- reduction of cellular infiltrate into the airway (BAL) ([2]; day 7, FIG. 2): not observed
- proportion of macrophages among cells recovered from the airspaces ([3]; […], 100 μg/mouse i.p. daily, FIG. 3): higher proportion
- neutrophils (CD11c+ and Ly6g+) in the airspaces, reduction in total cells ([3]; day 3, 100 μg/mouse i.p. daily, FIG. 4): primarily associated with neutrophils
- number of macrophages, all sites [3, 7]: no significant differences
- number of neutrophils, all sites [3, 7]: no significant differences
- CD8+ T cells ([4]; any time point analyzed (day 3, day 7)): No difference
- early CD4+ T cell recruitment to the airways (BAL) ([4]; day 3, 100 μg/mouse i.p. daily, FIG. 5): reduced
- T cell recruitment / later T cell populations (CD4) ([4]; day 7, airway and lung, FIG. 6): no differences; also recorded: did not affect later T cell populations
- CD4+ T cells in the lung parenchyma [4, 8]: corresponding accumulation
- T cell recruitment [4, 8]: reduced T cell recruitment; also recorded: affected early T cell recruitment
- CD8+ T cells cytokine expression [5]: remained unchanged
- CD4+ T cells producing IFNγ in the lung tissue ([5]; vs untreated mice and vehicle controls, FIG. 7): partial reduction
- recovered viral titer ([6]; early stages of viral replication (day 3)): blunted the recovered viral titer
- peak viral load ([6]; 100 μg/mouse i.p. daily): reduced peak viral load
